Read-outs that look alike come from different tables or passages of the source.
How the values were obtained:
HIV-1 Protease = target: T1, HIV-1 Protease (Human immunodeficiency virus type 1 group M subtype B, UniProt P04585); assay: Cell free assay (SensoLyte 490 HIV-1 Protease Assay Kit); format: biochemical
T1 construct: SensoLyte™ 490 HIV-1 Protease Assay Kit
Experimental: Procedure—cell free assay. The cell free assays were conducted according to the test kit protocol provided with the SensoLyte™ 490 HIV-1 Protease Assay Kit, available from AnaSpec (San Jose, Calif.).

HIV-1LAI = assay: Cell infectivity assay (HIV-1LAI infection of CEM-T4 cells, p24 readout); format: cell-based; details: for IC50: Human immunodeficiency virus 1, CEM-T4 cells infected with HIV-1LAI, read-out: HIV PI IC50 (nM) (Cell Infectivity Assay); for loss in potency between cell free assay experiments and cell infectivity assay experiments: comparison of cell free and cell infectivity IC50
Experimental: Procedure—cell infectivity assay. The T-cell-tropic strain HIV-1LAI was used to infect CEM-T4 cells over a dose range of the protease inhibitor compounds. CEM-T4 cells were grown in RPMI 1640 medium supplemented with 10% heat-inactivated fetal bovine serum, penicillin (100 units/mL), streptomycin (100 ug/mL), and polybrene (2 ug/mL) at 37° C. with 5% CO2. The PI dose range covered a total of nine 3:1 dilutions from 5000 nM to less than 1 nM. The tittered virus was added to wells of CEM cells (pre-treated with protease inhibitor [PI] dilution series for 1 h) at a low multiplicity of infection (MOI=0.01) and incubated for 4 h at 37° C. The cells then were washed three times with PBS (GIBCO/BRL), resuspended in triplicate wells each with 1 ml of culture medium containing the same concentration of PI as the initial pre-incubation and further incubated at 37° C. in 5% CO2. Each well of the 24-well plate contains 1×10̂5 cells upon incubation initiation. The cells were fed every two days with fresh PI at the appropriate concentration. Samples were scored for cytopathic effect on day 4, and if consistent CPE was seen throughout the various wells, the supernatants was collected for p24 assay. Otherwise, the cultures were maintained with feeding every other day until day 8, at which point the p24 were initiated.

[1] = Table 2 Activity Data, read-out: HIV PI IC50 (nM) (Cell-Free Assay)

Structure (SMILES) | IC50 (HIV-1 Protease; [1]) [nM] | IC50 (HIV-1LAI) [nM] | loss in potency between cell free assay experiments and cell infectivity assay experiments (HIV-1LAI) | further results
CCC(C)(C)C(=O)C(=O)N1CCCCC1C(=O)OC(CCc1ccc(OC)c(OC)c1)c1cccc(OCC(=O)NCCCOC(=O)NC(Cc2ccccc2)C(O)CN(CC(C)C)S(=O)(=O)c2ccc(OC)cc2)c1 (stereo not drawn) [Compound A4] | 8.4 | – | – | –
CCC(C)(C)C(=O)C(=O)N1CCCCC1C(=O)OC(CCc1ccc(OC)c(OC)c1)c1cccc(OCCNC(=O)COCC2OCCC2OC(=O)NC(Cc2ccccc2)C(O)CN(CC(C)C)S(=O)(=O)c2ccc(N)cc2)c1 (stereo not drawn) [Compound A13] | 51 | – | – | –
CCC(C)(C)C(=O)C(=O)N1CCCC[C@H]1C(=O)O[C@H](CCc1ccc(OC)c(OC)c1)c1cccc(NC(=O)CCC(=O)N[C@@H](Cc2ccccc2)[C@H](O)CC(CC(C)C)S(=O)(=O)c2ccc([N+](=O)[O-])cc2)c1 (stereo partly drawn) [Compound A8] | – | – | – | IC50 (HIV-1 Protease; assay not named, follows the cell free data of Table 2, read-out: IC50 value): 339 nM
CCC(C)(C)C(=O)C(=O)N1CCCCC1C(=O)OC(CCc1ccc(OC)c(OC)c1)c1cccc(OCCNC(=O)CCCOC(=O)NC(Cc2ccccc2)C(O)CN(CC(C)C)S(=O)(=O)c2ccc(N)cc2)c1 (stereo not drawn) [Compound A6] | 5.6 | – | – | –
CCC(C)(C)C(=O)C(=O)N1CCCCC1C(=O)OC(CCc1ccc(OC)c(OC)c1)c1cccc(OCCNC(=O)NC(CC(N)=O)C(=O)NC(Cc2ccccc2)C(CN(CC(C)C)S(=O)(=O)c2ccc(N)cc2)OC)c1 (stereo not drawn) [Compound A9] | – | 2.3 | little or no loss in potency | IC50 (HIV-1 Protease): 1.8 nM
CC(C)CN(C[C@@H](O)[C@H](Cc1ccccc1)NC(=O)O[C@H]1CCOC1)S(=O)(=O)c1ccc(N)cc1 [Amprenavir, amprenavir, reference compound] | – | 171 | significant loss of potency | –
CCC(C)(C)C(=O)C(=O)N1CCCCC1C(=O)OC(CCc1ccc(OC)c(OC)c1)c1cccc(OCC(=O)NCCCOC(=O)NC(Cc2ccccc2)C(O)CN(CC(C)C)S(=O)(=O)c2ccc([N+](=O)[O-])cc2)c1 (stereo not drawn) [Compound A1] | 24 | – | – | –
CCC(C)(C)C(=O)C(=O)N1CCCCC1C(=O)OC(CCc1ccc(OC)c(OC)c1)c1cccc(OCCNC(=O)CCCOC(=O)NC(Cc2ccccc2)C(O)CN(CC(C)C)S(=O)(=O)c2ccc([N+](=O)[O-])cc2)c1 (stereo not drawn) [Compound A3] | 11.5 | – | – | –
CCC(C)(C)C(=O)C(=O)N1CCCCC1C(=O)OC(CCc1ccc(OC)c(OC)c1)c1cccc(OCC(=O)NC(C(=O)NC(Cc2ccccc2)C(O)CN(CC(C)C)S(=O)(=O)c2ccc(N)cc2)C(C)C)c1 (stereo not drawn) [Compound A5] | – | 3.3 | little or no loss in potency | IC50 (HIV-1 Protease): 7.9 nM
CCC(C)(C)C(=O)C(=O)N1CCCCC1C(=O)OC(CCc1ccc(OC)c(OC)c1)c1cccc(OCC(=O)NC(CC(N)=O)C(=O)NC(Cc2ccccc2)C(O)CN(CC(C)C)S(=O)(=O)c2ccc(N)cc2)c1 (stereo not drawn) [Compound A14] | 3.5 | – | – | –
Cc1cccc(C)c1OCC(=O)N[C@@H](Cc1ccccc1)[C@@H](O)C[C@H](Cc1ccccc1)NC(=O)[C@H](C(C)C)N1CCCNC1=O [Lopinavir, lopinavir, reference compound] | – | 18.9 | significant loss of potency | IC50 (HIV-1 Protease; Table 1 Activity data, read-out: HIV PI IC50 (nM) (Cell free assay)): 0.9 nM
CCC(C)(C)C(=O)C(=O)N1CCCCC1C(=O)OC(CCc1ccc(OC)c(OC)c1)c1cccc(OCCNC(=O)NC(C(=O)NC(Cc2ccccc2)C(O)CN(CC(C)C)S(=O)(=O)c2ccc(N)cc2)C(C)C)c1 (stereo not drawn) [Compound A10] | – | 48.1 | – | IC50 (HIV-1 Protease): 3.9 nM
CCC(C)(C)C(=O)C(=O)N1CCCCC1C(=O)OC(CCc1ccc(OC)c(OC)c1)c1cccc(OCC(=O)NC(CC(N)=O)C(=O)NC(Cc2ccccc2)C(CN(CC(C)C)S(=O)(=O)c2ccc(N)cc2)OC)c1 (stereo not drawn) [Compound A7] | – | 14 | little or no loss in potency | IC50 (HIV-1 Protease): 6.6 nM
CCC(C)(C)C(=O)C(=O)N1CCCCC1C(=O)OC(CCc1ccc(OC)c(OC)c1)c1cccc(OCC(=O)NCCCOC(=O)NC(Cc2ccccc2)C(O)CN(CC(C)C)S(=O)(=O)c2ccc(N)cc2)c1 (stereo not drawn) [Compound A2] | 7.3 | – | – | –

From patent publication US20120041019A1, “PROTEASE INHIBITORS” (priority 2008, published 2012)
